Experimental data from patent US20240300886A1, “ARYLCYCLOHEXYLAMINE DERIVATIVES AND THEIR USE IN THE TREATMENT OF PSYCHIATRIC DISORDERS” (GILGAMESH PHARMACEUTICALS, INC., priority 2021, published 2024).
Like-named read-outs stand apart in the source and are kept apart here.

Experiments:
[1] = Oral bioavailability in mice, Method A (plasma and brain PK); assay type: in vivo, CD-1 mice; conditions: for half-life / Cmax / AUC(0-inf): male; for F: 10 mg/kg
Protocol: Animals. Male CD-1 mice were used in these studies. Animals were randomly assigned to treatment groups and were fasted for 4 h before dosing.
Drugs. Test compounds were dissolved in normal saline and administered intravenously (iv) or orally (po) at a dose of 10 mg/kg (calculated based on freebase) and at a volume of 5 mL/kg body weight. Compounds were tested as the racemates or pure enantiomers, as indicated.
Sample Collection and Bioanalysis. Blood samples were collected under 2,2,2-tribromoethanol anesthesia (150 mg/kg, ip) from the orbital sinus at 0.083, 0.25, 0.5, 1, 2, 4, 8 and 24 h (4 animals per time point) into microcontainers containing K2EDTA. Immediately after collection of blood, mice were euthanized by cervical dislocation and brain samples were collected at the same time points. All samples were immediately processed, flash-frozen, and stored at −70° C. until subsequent analysis. Plasma samples were separated by centrifugation of is whole blood and aliquots (50 μL) were mixed with 200 μL of internal standard solution (400 ng/mL in 1:1 v/v CH3CN:MeOH). After mixing by pipetting and centrifuging for 4 min at 6,000 rpm, 0.5 μL of each supernatant was analyzed for drug using a fit-for-purpose liquid chromatography-tandem mass spectrometry (LC-MS/MS) method, with authentic samples of each analyte used for calibration and identification. Brain samples (weight 100 mg±1 mg) were dispersed in 500 μL of internal standard solution (400 ng/mL in 4:1 v/v MeOH:water) using zirconium oxide beads (115 mg±5 mg) in The Bullet Blender® homogenizer for 30 s at speed 8. After homogenization, the samples were centrifuged for 4 min at 14,000 rpm and 0.5 μL of each supernatant was analyzed for drug using a fit-for-purpose LC-MS/MS method, with authentic samples of each analyte used for calibration and identification.
Data Analysis. The drug concentrations of samples below the lower limit of quantitation (LLOQ) were designated as zero. Pharmacokinetic data analysis was performed using noncompartmental, bolus injection or extravascular input analysis models in WinNonlin 5.2 (PharSight). Data points below LLOQ were presented as missing to improve validity of tin calculations.

[2] = Stability in liver microsomes (Example 21), SD rat; assay type: in vitro ADME; conditions: male, pH 7.4, 0.5 mg/mL protein
Protocol: (§1) General Procedure. Briefly, test compounds (final concentration 1 μM) were incubated in duplicate with liver microsomes from male animals of the indicated species (final protein concentration 0.5 mg/mL) in 50 mM sodium phosphate buffer (pH 7.4) with or without NADPH (1 mM). Total incubation volume was 500 μL. At 0, 5, 15, 30, and 60 min, aliquots of 50 μL were withdrawn, quenched with acetonitrile (150 μL), and analyzed for parent compound remaining using a fit-for-purpose LC-MS/MS method. Intrinsic clearance and half-life were calculated. Clearance values below zero were rounded to zero.

[3] = Stability in liver microsomes (Example 21), Gottingen minipig; assay type: in vitro ADME; conditions: male, pH 7.4, 0.5 mg/mL protein
Protocol: as §1

[4] = Oral bioavailability in monkeys (plasma PK); assay type: in vivo, Cynomolgus monkeys; conditions: for AUC(0-inf): male, cynomolgus monkey
Protocol: Animals. Male Cynomolgus monkeys were used in these studies. Animals were randomly assigned to treatment groups and were fasted overnight before dosing.
Drugs. Compound 2R was dissolved in a vehicle consisting of normal saline. It was then administered intravenously (iv) or orally (po) at a dose of 1 mg/kg (calculated based on freebase) and at a volume of 2 mL/kg body weight (n=3 per dosing route).
Sample Collection and Bioanalysis. Blood samples (approximately 500 μL) were collected under manual restraint from the cephalic vein at 0.08, 0.25, 0.5, 1, 2, 4, 8, and 24 h ([…]) into K2EDTA tubes and placed on wet ice. Immediately after blood collection, plasma was harvested by centrifugation at 3,000 g for 5 min at 4° C. within 15 minutes of collection and subsequently stored at −70±10° C. until bioanalysis. For bioanalysis, for diluted plasma samples, an aliquot of 2 μL sample was diluted with 18 μL blank matrix and the dilution factor was 10. For non-diluted samples, an aliquot of 20 μL sample was added with 300 μL internal standard (diclofenac, 60 ng/mL) in acetonitrile. The mixture was vortexed for 10 minutes and centrifuged at 5,800 rpm for 10 minutes. 90 μL of supernatant was transferred to a 96 well plate and analyzed with a fit-for-purpose LC-MS/MS method, with authentic samples of each analyte used for calibration and identification.
Data Analysis. Pharmacokinetic parameters were estimated using the non-compartmental analysis tool of Phoenix® a WinNonlin software (Ver 8.2).

[5] = biological target: serotonin transporter (SERT) (Homo sapiens (Human), UniProt P31645); assay: SERT competition radioligand binding ([3H]imipramine); conditions: for Ki: Human recombinant (CHO cells), 2.0 nM [3H]imipramine
Protocol: Disclosed compounds were tested for their binding affinity at the serotonin transporter (SERT) using a competition radioligand binding assay (Eurofins Cerep). Assay conditions are described in Table 16 below.

[6] = Stability in liver microsomes (Example 21), cynomolgus monkey; assay type: in vitro ADME; conditions: male, pH 7.4, 0.5 mg/mL protein
Protocol: as §1

CNC1(c2ccccc2Cl)CCCCC1=O (racemic) [racemic ketamine, ketamine]
half-life ([1]; CD-1, mouse brain, 10 mg/kg iv, read-out: t1/2 (iv)): 8.66 min | Cmax ([1]; CD-1, mouse brain, 10 mg/kg po): 521 ng/g | half-life ([1]; CD-1, mouse brain, 10 mg/kg po, read-out: t1/2 (po)): 12.2 min | AUC(0-inf) ([1]; CD-1, mouse plasma, 10 mg/kg iv, read-out: AUC0-inf (iv) (converted)): 633 ng·h/mL | half-life ([1]; CD-1, mouse plasma, 10 mg/kg iv, read-out: t1/2 (iv)): 8.46 min | Cmax ([1]; CD-1, mouse plasma, 10 mg/kg po): 253 ng/mL | AUC(0-inf) ([1]; CD-1, mouse plasma, 10 mg/kg po, read-out: AUC0-inf (po) (converted)): 96.8 ng·h/mL | half-life ([1]; CD-1, mouse plasma, 10 mg/kg po, read-out: t1/2 (po)): 11.5 min | AUC0-inf (iv) ([1]; mouse brain, 10 mg/kg iv): 97,000 ng*min/g | AUC0-inf (po) ([1]; mouse brain, 10 mg/kg po): 6,030 ng*min/g | F ([1]; mouse brain, calculated based on brain exposure): 6.2% | F ([1]; mouse plasma): 15%

CN[C@@]1(c2ccc(F)cc2)CCCCC1=O [Compound 2R, (R)-2-(4-fluorophenyl)-2(methylamino)cyclohexan-1-one]
microsomal CLint at 1 μM [2]: 16.2 µL/min/mg | microsomal CLint at 1 μM [3]: 16.4 µL/min/mg | AUC(0-inf) ([4]; monkey plasma, 1 mg/kg iv, read-out: AUC0-inf (iv) (converted)): 964 ng·h/mL | AUC(0-inf) ([4]; monkey plasma, 1 mg/kg po, read-out: AUC0-inf (po) (converted)): 259 ng·h/mL | F ([4]; monkey plasma, 1 mg/kg): 27% | oral bioavailability (in words) ([4]; monkeys, 1 mg/kg): moderate | Ki [5]: 6.2 µM | SERT binding potency relative to 2S (more potent) ([5]; human recombinant SERT): ~2 fold | microsomal CLint at 1 μM [6]: 9.5 µL/min/mg

CN[C@]1(c2ccc(F)cc2)CCCCC1=O [Compound 2S, (S)-2-(4-fluorophenyl)-2-(methylamino)cyclohexan-1-one]
microsomal CLint at 1 μM [2]: 14.1 µL/min/mg | microsomal CLint at 1 μM [3]: 20.3 µL/min/mg | Ki [5]: 12 µM | microsomal CLint at 1 μM [6]: 15.3 µL/min/mg
